Literature values as cited in patent US9937141B2, “Carcinoma diagnosis and treatment, based on ODC1 genotype” (The Arizona Board of Regents on Behalf of the University of …, priority 2009, dated 2018).
Each block holds one compound with its values, some of them ahead of it.

Key:
[1] = test system: COX
[2] = test system: tumor putrescine; settings: DFMO infusion, without suppressing peripheral platelet counts
[3] = test system: prostoglandin E2 (PGE2); settings: 300 mg/day, one month
[4] = human, in vivo

Structure (SMILES): CC1=C(CC(=O)O)c2cc(F)ccc2/C1=C\c1ccc(S(C)(=O)=O)cc1 [Sulindac sulfone]
COX-inhibitory activity [1]: lacks COX-inhibitory activity

Structure (SMILES): NCCCC(N)(C(=O)O)C(F)F (racemic) [DFMO, 2-(difluoromethyl)-dl-ornithine]
decrease in tumor putrescine levels [2]: 90%

Structure (SMILES): CC(C)Cc1ccc(C(C)C(=O)O)cc1 (stereo not shown) [ibuprofen]
PGE2 levels in flat mucosa [3]: significant decrease

Skin rash and pruritus, patients affected [4]: 5%
mild gastrointestinal effects, patients affected [4]: ~20%
time to peak plasma levels (fasting patients): about 2 hours
drug absorbed after oral administration (oral): about 90%
Structure (SMILES): CC1=C(CC(=O)O)c2cc(F)ccc2/C1=C\c1ccc([S+](C)[O-])cc1 (stereo not shown) [Sulindac, (Z)-5-fluoro-2-methyl-1-((4 (methylsulfin-yl)phenyl)methylene) 1H-indene-3-acetic acid]
